The record followed here is paper PMC9133015 (Nature Communications, 2022).

Several values for one entry are separate records, joined by “and”; a condition that tells them apart may be missing. Equal entries are not always repeated.

What all share (assay): Kinase inhibitor specificity profiling (Reaction Biology Corporation)
Type in all cases: biochemical
What all share (parameters): % Enzyme Activity (relative to DMSO controls): concentration or dose not given beside the values

The target of test [1] is T1, panel of 370 protein kinases (Homo sapiens, UniProt Q9Y2K2).
T1 construct: purchased Reaction Biology Corporation (assay service)
The settings on record: kinase SIK3.

For test [2], the target named is T2, panel of 370 protein kinases (Homo sapiens, UniProt P16234).
T2 construct: purchased Reaction Biology Corporation (assay service)
Particulars: 2 h, kinase PDGFRa; read-out: % Enzyme Activity (relative to DMSO controls).

The target of test [3] is T3, panel of 370 protein kinases (Homo sapiens, UniProt Q6P2M8).
T3 construct: purchased Reaction Biology Corporation (assay service)
Particulars: kinase CAMK1b.

Test [4] concerns the target T4, panel of 370 protein kinases (Homo sapiens, UniProt P04626).
T4 construct: purchased Reaction Biology Corporation (assay service)
Particulars: 2 h, kinase ERBB2/HER2; read-out: % Enzyme Activity (relative to DMSO controls).

Test [5] addresses T5, panel of 370 protein kinases (Homo sapiens, UniProt Q13163).
T5 construct: purchased Reaction Biology Corporation (assay service)
Particulars: 2 h, kinase MEK5; read-out: % Enzyme Activity (relative to DMSO controls).

The target in test [6] is T6, panel of 370 protein kinases (Homo sapiens, UniProt Q8NE63).
T6 construct: purchased Reaction Biology Corporation (assay service)
The settings on record: 2 h, kinase HIPK4; read-out: % Enzyme Activity (relative to DMSO controls).

The target in test [7] is T7, panel of 370 protein kinases (Homo sapiens, UniProt P11309).
T7 construct: purchased Reaction Biology Corporation (assay service)
The settings on record: 2 h, kinase PIM1; read-out: % Enzyme Activity (relative to DMSO controls).

The target of test [8] is T8, panel of 370 protein kinases (Homo sapiens, UniProt Q9Y3S1).
T8 construct: purchased Reaction Biology Corporation (assay service)
The settings on record: 2 h, kinase WNK2; read-out: % Enzyme Activity (relative to DMSO controls).

For test [9], the target named is T9, panel of 370 protein kinases (Homo sapiens, UniProt Q13237).
T9 construct: purchased Reaction Biology Corporation (assay service)
Particulars: 2 h, kinase PKG2/PRKG2; read-out: % Enzyme Activity (relative to DMSO controls).

Test [10] deals with T10, panel of 370 protein kinases (Homo sapiens, UniProt Q9HC98).
T10 construct: purchased Reaction Biology Corporation (assay service)
Particulars: 2 h, kinase NEK6; read-out: % Enzyme Activity (relative to DMSO controls).

Test [11] addresses T11, panel of 370 protein kinases (Homo sapiens, UniProt P08069).
T11 construct: purchased Reaction Biology Corporation (assay service)
Particulars: 2 h, kinase IGF1R; read-out: % Enzyme Activity (relative to DMSO controls).

Test [12] deals with T12, panel of 370 protein kinases (Homo sapiens, UniProt P51817).
T12 construct: purchased Reaction Biology Corporation (assay service)
The settings on record: 2 h, kinase PRKX; read-out: % Enzyme Activity (relative to DMSO controls).

In test [13] the target is T13, panel of 370 protein kinases (Homo sapiens, UniProt Q15746).
T13 construct: purchased Reaction Biology Corporation (assay service)
Particulars: 2 h, kinase MLCK/MYLK; read-out: % Enzyme Activity (relative to DMSO controls).

Test [14] addresses T14, panel of 370 protein kinases (Homo sapiens, UniProt Q02763).
T14 construct: purchased Reaction Biology Corporation (assay service)
The settings on record: 2 h, kinase TIE2/TEK; read-out: % Enzyme Activity (relative to DMSO controls).

In test [15] the target is T15, panel of 370 protein kinases (Homo sapiens, UniProt Q9BXA7).
T15 construct: purchased Reaction Biology Corporation (assay service)
Particulars: 2 h, kinase STK22D/TSSK1; read-out: % Enzyme Activity (relative to DMSO controls).

Test [16] has as its target T16, panel of 370 protein kinases (Homo sapiens, UniProt P49761).
T16 construct: purchased Reaction Biology Corporation (assay service)
The settings on record: 2 h, kinase CLK3; read-out: % Enzyme Activity (relative to DMSO controls).

The target in test [17] is T17, panel of 370 protein kinases (Homo sapiens, UniProt Q86UX6).
T17 construct: purchased Reaction Biology Corporation (assay service)
Particulars: 2 h, kinase STK32C/YANK3; read-out: % Enzyme Activity (relative to DMSO controls).

In test [18] the target is T18, panel of 370 protein kinases (Homo sapiens, UniProt O95819).
T18 construct: purchased Reaction Biology Corporation (assay service)
The settings on record: 2 h, kinase HGK/MAP4K4; read-out: % Enzyme Activity (relative to DMSO controls).

The target of test [19] is T19, panel of 370 protein kinases (Homo sapiens, UniProt Q96PN8).
T19 construct: purchased Reaction Biology Corporation (assay service)
Particulars: 2 h, kinase TSSK3/STK22C; read-out: % Enzyme Activity (relative to DMSO controls).

Test [20] addresses T20, panel of 370 protein kinases (Homo sapiens, UniProt Q92918).
T20 construct: purchased Reaction Biology Corporation (assay service)
Particulars: 2 h, kinase HPK1/MAP4K1; read-out: % Enzyme Activity (relative to DMSO controls).

Test [21] has as its target T21, panel of 370 protein kinases (Homo sapiens, UniProt P08631).
T21 construct: purchased Reaction Biology Corporation (assay service)
The settings on record: 2 h, kinase HCK; read-out: % Enzyme Activity (relative to DMSO controls).

T3 sequence (Q6P2M8 whole entry): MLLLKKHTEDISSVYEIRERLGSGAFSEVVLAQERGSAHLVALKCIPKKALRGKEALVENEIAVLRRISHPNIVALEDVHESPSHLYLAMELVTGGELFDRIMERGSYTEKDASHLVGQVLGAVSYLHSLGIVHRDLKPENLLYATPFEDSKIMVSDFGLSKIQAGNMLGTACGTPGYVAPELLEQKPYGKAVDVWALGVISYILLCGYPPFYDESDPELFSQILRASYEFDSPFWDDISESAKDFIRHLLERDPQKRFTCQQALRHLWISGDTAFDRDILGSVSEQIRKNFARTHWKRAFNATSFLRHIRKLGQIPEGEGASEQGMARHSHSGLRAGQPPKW
T1 sequence (Q9Y2K2 whole entry): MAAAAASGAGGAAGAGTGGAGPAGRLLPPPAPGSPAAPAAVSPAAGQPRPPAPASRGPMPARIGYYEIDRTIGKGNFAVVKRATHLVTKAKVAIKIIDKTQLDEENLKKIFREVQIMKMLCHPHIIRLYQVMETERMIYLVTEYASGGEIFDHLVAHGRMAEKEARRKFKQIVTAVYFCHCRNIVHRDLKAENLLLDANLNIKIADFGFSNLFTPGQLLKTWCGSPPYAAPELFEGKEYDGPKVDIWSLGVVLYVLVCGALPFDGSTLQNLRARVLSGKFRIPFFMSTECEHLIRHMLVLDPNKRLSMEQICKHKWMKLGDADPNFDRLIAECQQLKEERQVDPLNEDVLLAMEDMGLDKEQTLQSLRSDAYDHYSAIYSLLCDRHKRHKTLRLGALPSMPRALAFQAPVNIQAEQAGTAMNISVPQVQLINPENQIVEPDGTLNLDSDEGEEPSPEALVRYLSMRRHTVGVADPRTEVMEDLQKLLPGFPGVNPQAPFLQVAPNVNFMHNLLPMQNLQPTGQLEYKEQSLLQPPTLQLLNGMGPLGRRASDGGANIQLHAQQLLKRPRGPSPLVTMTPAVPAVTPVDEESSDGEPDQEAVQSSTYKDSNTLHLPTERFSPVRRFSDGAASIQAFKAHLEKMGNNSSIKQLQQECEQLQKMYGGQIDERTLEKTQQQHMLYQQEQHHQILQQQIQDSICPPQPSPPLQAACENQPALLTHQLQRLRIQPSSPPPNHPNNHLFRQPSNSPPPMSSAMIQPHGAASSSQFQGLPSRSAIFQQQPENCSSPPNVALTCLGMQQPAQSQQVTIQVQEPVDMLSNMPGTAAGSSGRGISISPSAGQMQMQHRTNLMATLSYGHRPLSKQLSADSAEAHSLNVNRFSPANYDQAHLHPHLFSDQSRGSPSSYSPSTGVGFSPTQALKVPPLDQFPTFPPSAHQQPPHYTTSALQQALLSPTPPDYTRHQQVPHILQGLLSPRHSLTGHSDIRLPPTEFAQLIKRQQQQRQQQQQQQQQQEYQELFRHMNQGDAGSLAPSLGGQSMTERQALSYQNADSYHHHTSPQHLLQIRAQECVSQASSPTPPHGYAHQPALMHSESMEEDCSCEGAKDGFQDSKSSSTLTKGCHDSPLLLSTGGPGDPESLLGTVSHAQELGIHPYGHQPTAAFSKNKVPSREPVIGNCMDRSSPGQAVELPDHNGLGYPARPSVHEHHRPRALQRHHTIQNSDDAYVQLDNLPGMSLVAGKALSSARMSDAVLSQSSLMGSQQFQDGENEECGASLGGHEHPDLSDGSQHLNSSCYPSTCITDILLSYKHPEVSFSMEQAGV
T12 sequence (P51817 whole entry): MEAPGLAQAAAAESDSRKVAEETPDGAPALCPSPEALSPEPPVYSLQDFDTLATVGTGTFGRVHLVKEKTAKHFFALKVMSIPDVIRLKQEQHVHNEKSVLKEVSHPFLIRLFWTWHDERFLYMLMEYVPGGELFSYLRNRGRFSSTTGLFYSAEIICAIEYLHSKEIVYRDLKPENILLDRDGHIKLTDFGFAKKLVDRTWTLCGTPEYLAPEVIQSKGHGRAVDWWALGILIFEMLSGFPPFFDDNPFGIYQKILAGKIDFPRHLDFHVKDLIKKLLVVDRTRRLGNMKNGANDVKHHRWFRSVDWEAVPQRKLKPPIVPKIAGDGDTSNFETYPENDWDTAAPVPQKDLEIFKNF
T7 sequence (P11309 whole entry): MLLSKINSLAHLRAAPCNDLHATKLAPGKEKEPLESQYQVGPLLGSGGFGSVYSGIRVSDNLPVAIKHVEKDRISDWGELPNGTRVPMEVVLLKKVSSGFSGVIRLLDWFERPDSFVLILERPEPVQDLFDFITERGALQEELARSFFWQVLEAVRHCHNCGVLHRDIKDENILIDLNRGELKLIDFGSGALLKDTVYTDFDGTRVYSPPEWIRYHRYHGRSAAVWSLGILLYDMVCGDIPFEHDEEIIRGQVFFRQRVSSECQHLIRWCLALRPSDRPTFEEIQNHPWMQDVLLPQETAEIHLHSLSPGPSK
T19 sequence (Q96PN8 whole entry): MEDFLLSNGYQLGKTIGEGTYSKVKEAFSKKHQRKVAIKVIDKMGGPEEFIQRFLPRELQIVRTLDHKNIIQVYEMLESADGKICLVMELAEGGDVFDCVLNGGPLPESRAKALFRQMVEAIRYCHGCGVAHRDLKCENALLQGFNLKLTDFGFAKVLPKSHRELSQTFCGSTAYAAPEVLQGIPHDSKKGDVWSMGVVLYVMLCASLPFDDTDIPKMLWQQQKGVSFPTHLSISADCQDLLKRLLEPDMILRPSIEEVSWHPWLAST
T17 sequence (Q86UX6 whole entry): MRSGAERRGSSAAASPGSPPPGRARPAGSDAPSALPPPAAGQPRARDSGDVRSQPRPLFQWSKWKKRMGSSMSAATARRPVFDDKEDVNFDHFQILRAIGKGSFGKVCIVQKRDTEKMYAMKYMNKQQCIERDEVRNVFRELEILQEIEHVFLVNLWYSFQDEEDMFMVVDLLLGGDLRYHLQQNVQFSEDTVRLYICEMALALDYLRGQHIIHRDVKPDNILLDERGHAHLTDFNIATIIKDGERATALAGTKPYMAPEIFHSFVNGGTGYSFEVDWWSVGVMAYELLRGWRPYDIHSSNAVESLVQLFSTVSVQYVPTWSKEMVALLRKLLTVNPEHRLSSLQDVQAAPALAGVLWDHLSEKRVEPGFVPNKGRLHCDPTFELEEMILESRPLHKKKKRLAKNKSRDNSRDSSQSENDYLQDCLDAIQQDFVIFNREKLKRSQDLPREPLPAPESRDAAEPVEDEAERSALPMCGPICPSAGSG
T4 sequence (P04626 23-1255): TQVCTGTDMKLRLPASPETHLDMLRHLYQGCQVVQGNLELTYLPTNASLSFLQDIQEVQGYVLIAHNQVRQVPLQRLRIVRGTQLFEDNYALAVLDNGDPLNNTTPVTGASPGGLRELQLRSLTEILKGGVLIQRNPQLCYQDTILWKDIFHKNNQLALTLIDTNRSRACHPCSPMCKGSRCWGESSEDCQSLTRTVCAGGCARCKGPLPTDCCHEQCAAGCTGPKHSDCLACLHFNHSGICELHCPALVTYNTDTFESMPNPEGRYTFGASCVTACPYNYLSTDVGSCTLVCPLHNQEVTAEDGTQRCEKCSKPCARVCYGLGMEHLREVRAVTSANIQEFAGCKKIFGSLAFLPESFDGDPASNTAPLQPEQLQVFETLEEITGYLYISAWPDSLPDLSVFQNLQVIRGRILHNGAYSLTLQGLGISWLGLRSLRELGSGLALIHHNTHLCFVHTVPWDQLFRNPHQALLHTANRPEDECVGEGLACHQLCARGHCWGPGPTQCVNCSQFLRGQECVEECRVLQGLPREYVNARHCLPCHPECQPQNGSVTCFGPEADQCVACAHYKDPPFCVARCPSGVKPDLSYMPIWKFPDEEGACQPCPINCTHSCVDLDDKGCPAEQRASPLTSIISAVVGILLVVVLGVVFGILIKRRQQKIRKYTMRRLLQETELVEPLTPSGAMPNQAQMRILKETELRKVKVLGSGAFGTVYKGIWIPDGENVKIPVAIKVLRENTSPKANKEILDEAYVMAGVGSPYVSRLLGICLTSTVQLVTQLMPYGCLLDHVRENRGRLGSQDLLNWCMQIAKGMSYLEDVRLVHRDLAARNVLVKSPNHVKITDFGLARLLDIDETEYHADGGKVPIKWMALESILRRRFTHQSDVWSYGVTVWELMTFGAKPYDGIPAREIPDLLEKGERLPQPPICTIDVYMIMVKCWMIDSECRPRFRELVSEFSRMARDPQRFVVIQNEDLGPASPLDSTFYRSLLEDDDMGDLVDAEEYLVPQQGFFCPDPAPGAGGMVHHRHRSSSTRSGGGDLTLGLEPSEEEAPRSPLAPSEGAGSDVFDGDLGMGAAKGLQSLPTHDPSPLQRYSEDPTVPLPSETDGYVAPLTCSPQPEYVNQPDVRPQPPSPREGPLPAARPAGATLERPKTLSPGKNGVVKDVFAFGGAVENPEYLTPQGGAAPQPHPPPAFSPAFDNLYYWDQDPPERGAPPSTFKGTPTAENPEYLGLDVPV
T6 sequence (Q8NE63 whole entry): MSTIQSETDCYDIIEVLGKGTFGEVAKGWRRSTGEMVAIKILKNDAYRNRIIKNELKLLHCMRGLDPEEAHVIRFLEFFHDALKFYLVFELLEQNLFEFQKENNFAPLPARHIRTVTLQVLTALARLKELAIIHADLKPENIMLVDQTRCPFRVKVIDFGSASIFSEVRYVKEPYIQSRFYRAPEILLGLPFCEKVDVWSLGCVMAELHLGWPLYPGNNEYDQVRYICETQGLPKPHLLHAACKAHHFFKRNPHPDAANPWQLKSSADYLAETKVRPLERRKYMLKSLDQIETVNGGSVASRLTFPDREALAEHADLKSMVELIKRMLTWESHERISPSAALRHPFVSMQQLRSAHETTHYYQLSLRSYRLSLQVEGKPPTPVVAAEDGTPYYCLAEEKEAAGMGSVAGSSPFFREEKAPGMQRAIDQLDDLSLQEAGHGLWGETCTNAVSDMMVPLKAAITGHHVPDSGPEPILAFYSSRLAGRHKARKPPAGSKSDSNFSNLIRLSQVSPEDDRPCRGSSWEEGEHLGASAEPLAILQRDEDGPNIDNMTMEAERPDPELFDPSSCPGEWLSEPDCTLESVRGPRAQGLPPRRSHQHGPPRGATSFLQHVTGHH

Consider `CCN1CCN(C(=O)c2ccc(Nc3ncc(F)c(-c4ccc5nc(N(C)C)sc5c4)n3)nc2)CC1` [YK-2-69], for which the “% Enzyme Activity (relative to DMSO controls)” value in [1] is 100.12% and 97.59%; in test [3], 94.21% and 93.36%. For the same compound, the remaining activity at 1 µM was 104% in test [2]; 100% in test [4]; 96.3% in test [5]; 56.5% in [6]; 77% in test [7]; 99.9% in test [8]. Moreover, the remaining activity at 1 µM in test [9] worked out at 94.6%; in test [10] it was 103%; in [11], 102%; in [12] it was 95.1%; in test [13], 97.5%; in test [14] it was 87.6%. Besides, the remaining activity at 1 µM in test [15] worked out at 91.2%; in [16], 80.5%; in [17] it was 96.8%; in test [18] it was 86.8%; in [19] it was 94.6%; in [20], 104%. Further, the remaining activity at 1 µM in test [21] was found to be 105%.
